# Assays:
# Assay type in all cases: functional
# Pasteurella multocida = assay: Compound was tested for minimum inhibitory concentration against Pasteurella multocida
# [1] = tested on: Brachyspira hyodysenteriae; assay: Compound was tested for minimum inhibitory concentration against Serpulina hyodysenteriae
# [2] = tested on: Brachyspira hyodysenteriae; assay: Compound was tested for minimum inhibitory concentration against S. hyodysenteriae; 6.25-12.5
MIC (Pasteurella multocida),MIC [1],MIC [2],Compound
> 200 µg/mL,> 200 µg/mL,,C=CCOc1ccc2c(c1O)CCC(C(=O)N[C@@H]1[C@H](O)[C@@H](O)[C@H]3OCO[C@H]3[C@@H]1O)=C2
50 µg/mL,50 µg/mL,,C=CCOc1cc2ccc(C(=O)N[C@@H]3[C@H](O)[C@@H](O)[C@H]4OCO[C@H]4[C@@H]3O)cc2cc1O
50 µg/mL,,,CCCc1coc2cc(/C=C(\C)C(=O)N[C@@H]3[C@H](O)[C@@H](O)[C@H]4OCO[C@H]4[C@@H]3O)ccc12

# The remaining lines, values behind:
Compound,MIC (Pasteurella multocida),MIC [1],MIC [2]
C=CCOc1cc2c(cc1O)C=C(C(=O)N[C@@H]1[C@H](O)[C@@H](O)[C@H]3OCO[C@H]3[C@@H]1O)CCC2,25 µg/mL,25 µg/mL,
C=CCOc1cc2c(cc1O)C=C(C(=O)N[C@@H]1[C@H](O)[C@@H](O)[C@H]3OCO[C@H]3[C@@H]1O)CC2,12.5 µg/mL,,6.25 µg/mL
CCCC1COc2cc(/C=C(\C)C(=O)N[C@@H]3[C@H](O)[C@@H](O)[C@H]4OCO[C@H]4[C@@H]3O)ccc21 (some centres undefined),6.25 µg/mL,,
CC/C=C1/COc2cc(/C=C(\C)C(=O)N[C@@H]3[C@H](O)[C@@H](O)[C@H]4OCO[C@H]4[C@@H]3O)ccc21,50 µg/mL,,
CC/C=C1\COc2cc(/C=C(\C)C(=O)N[C@@H]3[C@H](O)[C@@H](O)[C@H]4OCO[C@H]4[C@@H]3O)ccc21,50 µg/mL,,
C=CCOc1cc2c(cc1O)C=C(C(=O)N[C@@H]1[C@H](O)[C@@H](O)[C@H]3OCO[C@H]3[C@@H]1O)C2,> 200 µg/mL,> 200 µg/mL,

# Reference: ChEMBL document CHEMBL1130473, “Synthesis and in vitro antibacterial activities of novel conformationally restricted hygromycin a analogues” (1997)
